Measured values published in patent US20100034839A1, “METHODS FOR TREATING VIRAL DISORDERS” (priority 2008, published 2010).
Entries after “also recorded” stand apart in the source; their conditions may differ.

How the values were obtained:
[1] = test system: cell surface CLIP on Raji and Daudi cells; assay: Competition of synthetic peptides with cell surface CLIP (Fitc anti-human CLIP); format: cell-based; conditions: biotinylated competing peptide
From the text: Based on a computational model comparing the peptide content of TNP mixture and identifying those peptides that would have the likeliest ability to compete for the peptide/antigen binding site for MHC class II (human HLA-DR, DP, and DQ), several peptide candidates were synthesized and examined for activity. The purpose of the study was to determine if synthetic peptides can compete for binding with CLIP peptides as measured with either Fitc anti-human CLIP antibody or, comparatively in the case of biotinylated peptides, with Streptavidin.
Cell Culture Conditions: The Raji and Daudi cell lines were purchased from American Type Culture Collection, were thawed, and grown in RPMI 1640 medium supplemented with standard supplements, including 10% fetal calf serum, gentamycin, penicillin, streptomycin, sodium pyruvate, HEPES buffer, 1-glutamine, and 2-ME.
Protocol: Cells were plated into a 12 well plate with 3 mls total volume containing approximately 1.5×10^6/well for Daudi cells and 3.0×10^6/well for Raji cells. Treatment groups included no treatment as control; MKN 3 and MKN 5 at 50 microMolar final concentration based on the reported molarity of the synthesized compounds.
The cells were incubated at 37° C. in an atmosphere containing 5% CO2 and approximately 92% humidity. The cells were incubated for 4 and 24 hours. At each time point, the cells from that experimental time were harvested and stained for flow cytometric analysis of cell surface expression of CLIP (MHC Class II invariant peptide, human) by using the commercially available (Becton/Dickinson/PHarmingen) anti-human CLIP Fitc. Catalogue #555981 versus Streptavidin.
Harvested cells were stained using standard staining procedure that called for a 1:100 dilution of Fitc-anti-human CLIP or isotype control versus 1:200 dilution of the commercially prepared Streptavidin. Following staining on ice for 25 minutes, cells were washed with PBS/FCS and resuspended in 100 microliters and added to staining tubes containing 400 microliters of PBS. Samples were acquired and analyzed on a Coulter Excel Flow Cytometer.
In the Histogram analyses of FIGS. 5-7 the Y axis represents cell number of the 5000 live cells versus the X axis which is a reflection of relative Fitc fluorescence versus Streptavidin-PE (eBioscience, Cat. #12-4317) that will bind with high affinity to cell-bound biotinylated peptides. The distance between the histogram from the isotype control staining versus the histogram reflecting the specific stain and is a measure of level of cell surface CLIP or the biotinylated peptide when stained with Streptavidin on a population of live Raji or Daudi cells as indicated.

[2] = test system: CLIP^+ B cells and lymphocyte subsets in spleen and lymph nodes; assay: CpG-ODN (TLR9) induced chronic hyperimmune activation in B6.129 mice with or without peptide; format: in vivo, mouse
Experimental: FIG. 14 depicts that administration of targeted peptide in combination with CpG-ODN reverses the inflammatory effects of TLR9 activation. FIG. 14a: B6.129 mice were injected with CpG-ODN, a TLR9 agonist without (black squares) or with VGV-hB (black circles). Total spleen cell recoveries (top panel) and lymph node cell recoveries (lower panel) at 24, 72, and 96 hours are reported. FIG. 14b: spleen cells from untreated B6.129 (upper left panel) mice, spleen cells from mice injected intraperitoneally with CpG-ODN for 48 hours (upper right panel), spleen cells from mice injected intraperitoneally with CpG-ODN+targeted peptide (VGV-hB) (lower left panel), or spleen cells from mice injected intraperitoneally with CpG-ODN+scrambled peptide (VGV-sP) (lower right panel), were harvested and stained using anti-mouse B220-PE Cy5 versus 15G4-FITC anti-mouse CLIP/I-Ab Cells were analyzed flow-cytometrically using two-dimensional dot plot analysis. FIGS. 14c & 14d: individual B6.129 animals were injected with CpG-ODN and one of three doses of peptide replacement, with either VGV-hB (FIG. 14c) or VGV-sB (FIG. 14d). As indicated, for each dose, four to six animals were injected with each of three doses, at 0.5, 5, and 50 μg per injection. Splenocytes were removed after 48 hours, stained using anti-mouse B220-PE versus 15G4-FITC anti-mouse CLIP/I-Ab. Cells were acquired and analyzed with flow cytometry, using two-dimensional dot plot analysis. Percentages of CLIP+ B cells were plotted using scatter plot analysis. The formula for the slope of each line is indicated in each of FIGS. 14c & 14d.
FIG. 15 depicts the effects of targeted peptides on the distribution of TLR activated lymphoid subsets of B cells, CD4+ T cells, CD8+ T cells, and on CD4+ T regulatory cells. FIG. 15a: B6.129 mice were injected with CpG-ODN without (squares) or with (circles) VGV-hB. Spleen (solid black symbols) and lymph nodes (open symbols) were harvested at 24, 72, and 96 hours, and stained using anti-mouse B220-PE versus 15G4-FITC anti-mouse CLIP/I-Ab. Data were plotted as percent CLIP+ B cells from either spleen or node. FIG. 15b: B6.129 mice were injected with CpG-ODN without (squares) or with (circles) VGV-hB. Spleen (solid black symbols) and lymph nodes (open symbols) were harvested at 24, 72, and 96 hours, and stained using anti-mouse CD8-PE. Data were plotted as percent CD8+ T cells from either spleen or node as indicated. FIG. 15c: B6.129 mice were injected with CpG-ODN without (squares) or with (circles) VGV-hB. Spleen (solid black symbols) and lymph nodes (open symbols) were harvested at 24, 72, and 96 hours, and stained using anti-mouse CD4 GK1.5-FITC. Data were plotted as percent CD4+ T cells from either spleen or node. FIG. 15d: B6.129 mice were injected with CpG-ODN without (squares) or with (circles) VGV-hB. Spleen (solid black symbols) and lymph nodes (open symbols) were harvested at 24, 72, and 96 hours, and stained using anti-mouse CD4 GK1.5-PE versus anti-mouse FoxP3-FITC. Data were plotted as percent CD4+ FoxP3+ T cells from either spleen or node.
FIG. 16 depicts that TLR activation and peptide reversal differentially affect cell death of lymphocyte subsets. FIG. 16a: B6.129 mice were injected with CpG-ODN without (solid black lines) or with VGV-hB (dashed lines). Cells were counted and viability was determined flow cytometrically. T cell viability 48 hours subsequent to CPG-ODN treatment alone is indicated by solid circles and solid black line; T cell viability, 48 hours after treatment with CpG-ODN and VGV-hB, is indicated by solid squares and dashed line. B cell viability, CpG-ODN treatment alone, is indicated by black x's on a solid black line; B cell viability after CpG-ODN and VGV-hB is indicated by solid black triangles and dashed lines. FIG. 16b: Ag-specific T cell hybridomas induce apoptosis B cells. FIG. 16c: Ag-specific T cell hybridomas induce apoptosis in resting and in CpG-ODN stimulated splenocytes, but not in antigen receptor engaged B cells. […]

[3] = VGV-hB in combination with TLR 9 stimulation, FIG. 16a

For FRIMAVLAS, the “cell surface bound CLIP” value ([1]; 4 hours) was “small decreases in cell surface bound CLIP”, the “cell surface bound CLIP” value ([1]; 24 hours) was “significant decreases” and the “effect of CpG-ODN on total cell numbers, absolute numbers of B cells and CLIP^+ B cell distribution between spleen and lymph node” value ([2]; 24, 72, 96 hours, FIG. 15a) was “reduced”. For the same sequence, the “percent of CpG-induced CLIP^+ B cells in spleen” value ([2]; CpG-ODN plus peptide intraperitoneally, 48 hours, FIG. 14b) was “reversed the effects of CPG alone”, the “CD8^+ T cells” value ([2]; CpG-ODN with VGV-hB) was “promotes expansion of CD8^+ T cells” and the “CD4^+FoxP3^+ Tregs in the lymph nodes” value ([2]; FIG. 15d, 15e, listed as VGV-hB) was “reversible; also recorded: decreases in Tregs”. The B cell death [2, 3] was “increased B cell death”, the “number of live CD4^+ T cells” value [2, 3] was “moderate increase in the number of live CD4^+ T cells” and the “reversal of CpG-ODN activation incl. percent of CLIP^+ B cells from total spleen, peptide titration” value ([2]; dose titration of peptide per mouse, FIGS. 14c and 14d) was “reversed the effects of CpG-ODN activation”.
